Results: ChEMBL document CHEMBL4507283, “Data for DCP probe BI-1935” (2021)

Legend:
[1] = target: Acetylcholine receptor subunit alpha (Homo sapiens) (UniProt P02708); assay: NACH/H Eurofins-Panlabs selectivity data (BI); conditions: Compound concentration 10.0 uM
[2] = target: Tyrosine-protein kinase JAK1 (Homo sapiens) (UniProt P23458); conditions: Compound concentration 1000.0 nM
[3] = target: Voltage-dependent L-type calcium channel subunit alpha-1C (phenylalkylamine site) (Rattus norvegicus, UniProt P22002); assay: CA+/PAASITE Eurofins-Panlabs selectivity data (BI); conditions: compound concentration 10 uM, read-out: % Ctrl
[4] = target: Sigma non-opioid intracellular receptor 1 (Homo sapiens, UniProt Q99720); conditions: Compound concentration 10.0 uM
[5] = target: Cyclin-dependent kinase 11A (Homo sapiens) (UniProt Q9UQ88); conditions: Compound concentration 1000.0 nM
[6] = target: Serine/threonine-protein kinase RIO1 (Homo sapiens) (UniProt Q9BRS2); conditions: Compound concentration 1000.0 nM
[7] = target: Activin receptor type-1-like (Homo sapiens) (UniProt P37023); conditions: Compound concentration 1000.0 nM
[8] = target: Histamine H3 receptor (Homo sapiens) (UniProt Q9Y5N1); conditions: Compound concentration 10.0 uM
[9] = target: Protein kinase C iota type (Homo sapiens) (UniProt P41743); conditions: Compound concentration 1000.0 nM
[10] = target: NUAK family SNF1-like kinase 2 (Homo sapiens) (UniProt Q9H093); conditions: Compound concentration 1000.0 nM
[11] = target: Mitogen-activated protein kinase 10 (Homo sapiens) (UniProt P53779); conditions: Compound concentration 1000.0 nM
[12] = target: Serine/threonine-protein kinase Nek11 (Homo sapiens) (UniProt Q8NG66); conditions: Compound concentration 1000.0 nM
[13] = target: TGF-beta receptor type-2 (Homo sapiens) (UniProt P37173); conditions: Compound concentration 1000.0 nM
[14] = target: Serine/threonine-protein kinase mTOR (Homo sapiens) (UniProt P42345); conditions: Compound concentration 1000.0 nM
[15] = target: Alpha-1A adrenergic receptor (Homo sapiens) (UniProt P35348); conditions: Compound concentration 10.0 uM
[16] = target: Receptor-interacting serine/threonine-protein kinase 1 (Homo sapiens) (UniProt Q13546); conditions: Compound concentration 1000.0 nM
[17] = target: Tyrosine-protein kinase Fes/Fps (Homo sapiens) (UniProt P07332); conditions: Compound concentration 1000.0 nM
[18] = target: Calcium/calmodulin-dependent protein kinase kinase 1 (Homo sapiens) (UniProt Q8N5S9); conditions: Compound concentration 1000.0 nM
[19] = target: Casein kinase I isoform epsilon (Homo sapiens) (UniProt P49674); conditions: Compound concentration 1000.0 nM
[20] = target: Sodium-dependent dopamine transporter (Homo sapiens, UniProt Q01959); conditions: Compound concentration 10.0 uM
[21] = target: Mitogen-activated protein kinase kinase kinase 14 (Homo sapiens) (UniProt Q99558); conditions: Compound concentration 1000.0 nM
[22] = target: STE20/SPS1-related proline-alanine-rich protein kinase (Homo sapiens) (UniProt Q9UEW8); conditions: Compound concentration 1000.0 nM
[23] = target: Serine/threonine-protein kinase 26 (Homo sapiens) (UniProt Q9P289); conditions: Compound concentration 1000.0 nM
[24] = target: Phosphatidylinositol 3-kinase C2 domain-containing subunit gamma (Homo sapiens) (UniProt O75747); conditions: Compound concentration 1000.0 nM
[25] = target: Prostaglandin G/H synthase 1 (Homo sapiens) (UniProt P23219); assay: COX-1 Eurofins-Panlabs selectivity data (BI); conditions: Compound concentration 10.0 uM
[26] = target: Histamine H4 receptor (Homo sapiens) (UniProt Q9H3N8); conditions: Compound concentration 10.0 uM
[27] = target: Serine/threonine-protein kinase PLK1 (Homo sapiens) (UniProt P53350); conditions: Compound concentration 1000.0 nM
[28] = target: Tyrosine-protein kinase JAK3 (Homo sapiens) (UniProt P52333); conditions: Compound concentration 1000.0 nM
[29] = target: RAF proto-oncogene serine/threonine-protein kinase (Homo sapiens) (UniProt P04049); conditions: Compound concentration 1000.0 nM
[30] = target: Polyunsaturated fatty acid lipoxygenase ALOX15 (Oryctolagus cuniculus) (UniProt P12530); assay: 15LO Eurofins-Panlabs selectivity data (BI); conditions: Compound concentration 10.0 uM
[31] = target: Serine/threonine-protein kinase PAK 3 (Homo sapiens) (UniProt O75914); conditions: Compound concentration 1000.0 nM
[32] = target: Vasopressin V1a receptor (Homo sapiens) (UniProt P37288); assay: V1A/HU Eurofins-Panlabs selectivity data (BI); conditions: Compound concentration 10.0 uM
[33] = target: Membrane-associated tyrosine- and threonine-specific cdc2-inhibitory kinase (Homo sapiens) (UniProt Q99640); conditions: Compound concentration 1000.0 nM
[34] = target: Acetylcholinesterase (Homo sapiens) (UniProt P22303); assay: ACHOLINEST Eurofins-Panlabs selectivity data (BI); conditions: Compound concentration 10.0 uM
[35] = target: Mitogen-activated protein kinase 1 (Homo sapiens) (UniProt P28482); conditions: Compound concentration 1000.0 nM
[36] = target: Mitogen-activated protein kinase 6 (Homo sapiens) (UniProt Q16659); conditions: Compound concentration 1000.0 nM
[37] = target: Tyrosine-protein kinase Yes (Homo sapiens) (UniProt P07947); conditions: Compound concentration 1000.0 nM
[38] = target: Serine/threonine-protein kinase D3 (Homo sapiens) (UniProt O94806); conditions: Compound concentration 1000.0 nM
[39] = target: Dual specificity mitogen-activated protein kinase kinase 6 (Homo sapiens) (UniProt P52564); conditions: Compound concentration 1000.0 nM
[40] = test system: Receptor-type tyrosine-protein kinase FLT3 (Homo sapiens), P36888 [UNDEFINED MUTATION]; conditions: Compound concentration 1000.0 nM
[41] = target: Serine/threonine-protein kinase N1 (Homo sapiens) (UniProt Q16512); conditions: Compound concentration 1000.0 nM
[42] = target: Wee1-like protein kinase 2 (Homo sapiens) (UniProt P0C1S8); conditions: Compound concentration 1000.0 nM
[43] = target: Voltage-dependent L-type calcium channel subunit alpha-1C (diltiazem site) (Rattus norvegicus, UniProt P22002); assay: CA+/DILSI/RA Eurofins-Panlabs selectivity data (BI); conditions: compound concentration 10 uM, read-out: % Ctrl
[44] = target: Leukocyte tyrosine kinase receptor (Homo sapiens) (UniProt P29376); conditions: Compound concentration 1000.0 nM
[45] = target: Megakaryocyte-associated tyrosine-protein kinase (Homo sapiens) (UniProt P42679); conditions: Compound concentration 1000.0 nM

Sequence of Mitogen-activated protein kinase 6 (Homo sapiens) (Q16659 whole entry): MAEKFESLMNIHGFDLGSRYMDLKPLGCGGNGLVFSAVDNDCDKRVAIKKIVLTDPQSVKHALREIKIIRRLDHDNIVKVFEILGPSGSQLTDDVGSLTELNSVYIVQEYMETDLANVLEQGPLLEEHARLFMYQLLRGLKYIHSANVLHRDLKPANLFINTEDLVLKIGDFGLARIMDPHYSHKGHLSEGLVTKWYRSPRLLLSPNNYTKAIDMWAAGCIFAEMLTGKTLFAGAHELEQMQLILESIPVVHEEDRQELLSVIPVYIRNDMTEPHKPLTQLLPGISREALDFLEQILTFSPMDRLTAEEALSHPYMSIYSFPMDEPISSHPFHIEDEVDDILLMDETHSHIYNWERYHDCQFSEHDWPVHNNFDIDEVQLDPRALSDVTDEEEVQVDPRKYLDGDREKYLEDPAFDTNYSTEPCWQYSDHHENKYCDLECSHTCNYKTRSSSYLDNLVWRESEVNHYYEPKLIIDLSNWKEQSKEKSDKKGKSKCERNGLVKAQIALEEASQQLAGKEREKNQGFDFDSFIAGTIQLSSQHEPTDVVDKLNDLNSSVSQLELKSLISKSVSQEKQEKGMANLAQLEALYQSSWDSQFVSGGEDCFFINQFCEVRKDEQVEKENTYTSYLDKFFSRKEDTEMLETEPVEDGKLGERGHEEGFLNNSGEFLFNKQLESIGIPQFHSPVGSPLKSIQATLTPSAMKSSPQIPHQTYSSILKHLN
Sequence of Serine/threonine-protein kinase D3 (Homo sapiens) (O94806 whole entry): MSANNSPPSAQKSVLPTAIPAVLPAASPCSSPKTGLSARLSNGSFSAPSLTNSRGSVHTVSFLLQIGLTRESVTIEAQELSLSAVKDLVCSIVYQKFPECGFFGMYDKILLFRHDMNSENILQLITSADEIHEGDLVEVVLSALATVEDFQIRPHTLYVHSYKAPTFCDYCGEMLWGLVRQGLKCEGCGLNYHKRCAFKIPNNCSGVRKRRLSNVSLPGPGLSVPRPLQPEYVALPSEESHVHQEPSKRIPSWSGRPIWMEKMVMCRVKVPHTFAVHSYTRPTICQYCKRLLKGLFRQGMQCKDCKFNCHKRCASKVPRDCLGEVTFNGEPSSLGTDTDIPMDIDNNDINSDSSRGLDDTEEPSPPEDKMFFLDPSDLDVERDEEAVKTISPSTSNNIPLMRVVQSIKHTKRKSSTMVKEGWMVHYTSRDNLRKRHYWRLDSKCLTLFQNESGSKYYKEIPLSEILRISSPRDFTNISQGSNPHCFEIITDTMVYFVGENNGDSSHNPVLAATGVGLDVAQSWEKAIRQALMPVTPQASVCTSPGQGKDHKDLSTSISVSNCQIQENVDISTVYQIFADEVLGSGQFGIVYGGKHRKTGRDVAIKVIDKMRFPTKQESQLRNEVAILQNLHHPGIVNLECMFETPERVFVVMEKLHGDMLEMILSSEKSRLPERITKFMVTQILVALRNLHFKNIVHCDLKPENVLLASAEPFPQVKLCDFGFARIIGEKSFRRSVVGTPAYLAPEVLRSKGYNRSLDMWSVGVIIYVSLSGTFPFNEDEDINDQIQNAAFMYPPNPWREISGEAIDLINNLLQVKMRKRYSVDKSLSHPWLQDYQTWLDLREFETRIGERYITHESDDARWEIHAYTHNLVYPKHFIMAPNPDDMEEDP
Sequence of NUAK family SNF1-like kinase 2 (Homo sapiens) (Q9H093 whole entry): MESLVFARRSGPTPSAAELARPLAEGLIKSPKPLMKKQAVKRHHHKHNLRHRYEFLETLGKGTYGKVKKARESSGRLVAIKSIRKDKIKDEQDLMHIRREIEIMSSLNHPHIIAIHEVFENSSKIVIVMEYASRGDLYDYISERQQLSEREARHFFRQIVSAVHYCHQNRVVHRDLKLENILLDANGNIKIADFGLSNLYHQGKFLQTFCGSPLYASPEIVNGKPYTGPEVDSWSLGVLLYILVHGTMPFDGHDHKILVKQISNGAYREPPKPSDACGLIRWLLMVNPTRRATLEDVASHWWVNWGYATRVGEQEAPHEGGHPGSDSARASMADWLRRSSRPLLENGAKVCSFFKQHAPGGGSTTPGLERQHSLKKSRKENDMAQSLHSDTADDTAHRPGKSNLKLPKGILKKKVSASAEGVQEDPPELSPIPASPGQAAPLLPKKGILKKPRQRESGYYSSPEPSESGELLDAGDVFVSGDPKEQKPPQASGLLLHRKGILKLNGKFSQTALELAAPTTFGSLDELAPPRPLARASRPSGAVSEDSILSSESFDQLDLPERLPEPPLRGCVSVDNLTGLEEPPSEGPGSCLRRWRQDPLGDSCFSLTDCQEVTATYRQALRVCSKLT
Sequence of Acetylcholinesterase (Homo sapiens) (P22303 whole entry): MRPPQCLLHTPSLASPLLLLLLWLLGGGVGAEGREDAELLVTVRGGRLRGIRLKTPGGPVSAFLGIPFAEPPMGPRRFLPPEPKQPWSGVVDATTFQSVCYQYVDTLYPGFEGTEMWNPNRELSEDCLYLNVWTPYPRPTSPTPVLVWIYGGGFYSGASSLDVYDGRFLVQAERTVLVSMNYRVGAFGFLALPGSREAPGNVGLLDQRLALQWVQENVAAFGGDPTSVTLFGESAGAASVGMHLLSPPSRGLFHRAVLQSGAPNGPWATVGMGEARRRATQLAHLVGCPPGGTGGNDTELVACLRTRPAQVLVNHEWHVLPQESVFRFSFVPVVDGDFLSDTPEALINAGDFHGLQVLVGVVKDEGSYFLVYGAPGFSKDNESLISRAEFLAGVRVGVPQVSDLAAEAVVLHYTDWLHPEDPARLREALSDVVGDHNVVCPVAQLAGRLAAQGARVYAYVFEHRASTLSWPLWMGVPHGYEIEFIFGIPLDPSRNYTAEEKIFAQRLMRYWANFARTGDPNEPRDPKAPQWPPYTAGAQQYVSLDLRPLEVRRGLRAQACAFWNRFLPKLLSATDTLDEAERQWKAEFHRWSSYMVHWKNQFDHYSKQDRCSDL
Sequence of Casein kinase I isoform epsilon (Homo sapiens) (P49674 whole entry, looked up, canonical isoform): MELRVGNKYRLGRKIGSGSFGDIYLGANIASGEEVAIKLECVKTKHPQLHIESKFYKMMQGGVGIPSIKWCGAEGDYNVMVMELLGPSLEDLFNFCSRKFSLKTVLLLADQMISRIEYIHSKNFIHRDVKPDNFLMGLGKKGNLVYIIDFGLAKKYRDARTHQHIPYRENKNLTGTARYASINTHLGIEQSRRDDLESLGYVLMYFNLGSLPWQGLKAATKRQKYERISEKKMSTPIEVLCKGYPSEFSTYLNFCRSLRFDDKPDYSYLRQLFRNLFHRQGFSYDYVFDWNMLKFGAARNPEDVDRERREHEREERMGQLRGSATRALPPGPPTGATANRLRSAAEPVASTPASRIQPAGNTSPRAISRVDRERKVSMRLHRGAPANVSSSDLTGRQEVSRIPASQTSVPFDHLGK
Sequence of Leukocyte tyrosine kinase receptor (Homo sapiens) (P29376 whole entry): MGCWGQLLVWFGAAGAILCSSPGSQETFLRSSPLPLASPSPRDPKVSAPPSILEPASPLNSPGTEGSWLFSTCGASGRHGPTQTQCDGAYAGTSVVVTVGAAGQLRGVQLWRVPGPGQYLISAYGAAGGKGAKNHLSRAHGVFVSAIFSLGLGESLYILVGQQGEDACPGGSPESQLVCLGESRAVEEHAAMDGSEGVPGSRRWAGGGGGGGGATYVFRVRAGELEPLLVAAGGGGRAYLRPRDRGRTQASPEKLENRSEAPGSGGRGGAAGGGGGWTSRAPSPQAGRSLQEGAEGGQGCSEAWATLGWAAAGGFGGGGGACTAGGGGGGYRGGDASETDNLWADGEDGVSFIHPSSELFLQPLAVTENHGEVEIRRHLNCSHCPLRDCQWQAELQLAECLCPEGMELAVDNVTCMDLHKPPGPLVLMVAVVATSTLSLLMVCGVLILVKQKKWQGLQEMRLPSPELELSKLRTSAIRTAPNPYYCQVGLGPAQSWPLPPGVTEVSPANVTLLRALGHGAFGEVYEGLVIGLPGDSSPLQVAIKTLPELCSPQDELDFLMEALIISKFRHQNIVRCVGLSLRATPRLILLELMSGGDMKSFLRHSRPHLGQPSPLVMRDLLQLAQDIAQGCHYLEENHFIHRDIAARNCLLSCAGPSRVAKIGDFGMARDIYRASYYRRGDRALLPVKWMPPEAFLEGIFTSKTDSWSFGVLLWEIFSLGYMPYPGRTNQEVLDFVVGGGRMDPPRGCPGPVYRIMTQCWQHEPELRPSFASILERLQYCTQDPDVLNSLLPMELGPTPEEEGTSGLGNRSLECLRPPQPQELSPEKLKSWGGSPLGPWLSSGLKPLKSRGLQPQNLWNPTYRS
Sequence of Protein kinase C iota type (Homo sapiens) (P41743 whole entry): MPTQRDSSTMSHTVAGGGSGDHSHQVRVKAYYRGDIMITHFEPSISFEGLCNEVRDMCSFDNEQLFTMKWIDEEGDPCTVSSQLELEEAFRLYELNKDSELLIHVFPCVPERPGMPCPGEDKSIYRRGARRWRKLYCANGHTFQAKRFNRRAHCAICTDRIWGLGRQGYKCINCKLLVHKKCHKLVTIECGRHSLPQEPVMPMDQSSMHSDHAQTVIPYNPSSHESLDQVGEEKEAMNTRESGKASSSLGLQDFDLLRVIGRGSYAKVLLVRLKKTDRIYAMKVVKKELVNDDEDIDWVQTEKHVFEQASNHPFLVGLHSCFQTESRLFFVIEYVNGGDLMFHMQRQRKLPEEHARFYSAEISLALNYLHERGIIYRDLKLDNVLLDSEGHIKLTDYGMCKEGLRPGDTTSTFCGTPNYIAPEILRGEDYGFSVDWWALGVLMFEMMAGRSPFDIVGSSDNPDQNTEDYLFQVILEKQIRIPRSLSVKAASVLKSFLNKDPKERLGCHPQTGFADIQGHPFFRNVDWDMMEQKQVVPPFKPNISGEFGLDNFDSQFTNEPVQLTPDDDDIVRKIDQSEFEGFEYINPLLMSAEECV
Sequence of Sigma non-opioid intracellular receptor 1 (Q99720 whole entry): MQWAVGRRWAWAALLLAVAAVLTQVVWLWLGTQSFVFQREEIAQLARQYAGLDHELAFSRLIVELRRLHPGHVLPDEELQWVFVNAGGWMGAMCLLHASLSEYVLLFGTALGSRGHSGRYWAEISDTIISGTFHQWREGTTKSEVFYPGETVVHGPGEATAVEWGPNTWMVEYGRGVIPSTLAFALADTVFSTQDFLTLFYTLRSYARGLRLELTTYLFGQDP

CCOCCn1cc(C(=O)Nc2ccc(-n3nc(-c4cccnc4)cc3C(F)(F)F)cn2)ccc1=O [BI 1935]
residual activity [1]: 114% | residual activity [2]: 100% | activity at 10 µM [3]: 88.5% (not active) | inhibition [4]: 50% | residual activity [5]: 100% | residual activity [6]: 100% | residual activity [7]: 100% | inhibition [8]: 25.3% | residual activity [9]: 73% | residual activity [10]: 73% | residual activity [11]: 100% | residual activity [12]: 96% | residual activity [13]: 100% | residual activity [14]: 100% | inhibition [15]: 29.3% | residual activity [16]: 88% | residual activity [17]: 82% | residual activity [18]: 100% | residual activity [19]: 100% | inhibition [20]: 82.1% | residual activity [21]: 69% | residual activity [22]: 100% | residual activity [23]: 81% | residual activity [24]: 85% | residual activity [25]: 163% | inhibition [26]: 48.6% | residual activity [27]: 100% | residual activity [28]: 100% | residual activity [29]: 100% | residual activity [30]: 92% | residual activity [31]: 100% | residual activity [32]: 98% | residual activity [33]: 100% | residual activity [34]: 41% | residual activity [35]: 100% | residual activity [36]: 100% | residual activity [37]: 85% | residual activity [38]: 81% | residual activity [39]: 100% | residual activity [40]: 56% | residual activity [41]: 76% | residual activity [42]: 100% | activity at 10 µM [43]: 95% (not active) | residual activity [44]: 100% | residual activity [45]: 90%
